The results in this text go back to ChEMBL document CHEMBL4251673, “Structurally Diverse Diterpenoids from Sandwithia guyanensis” (J Nat Prod, 2018).

Series [1] is described as follows: Selectivity index, ratio of CC50 for African green monkey Vero cells to EC50 for Chikungunya virus Indian Ocean 889 infected in African green monkey Vero cells. The settings on record: read-out: Ratio CC50/EC50. The series is classed as toxicity.
The test system of the next series is Chikungunya virus. Kind of series: Antiviral activity against Chikungunya virus Indian Ocean 889 infected in African green monkey Vero cells assessed as inhibition of virus-induced cytopathic effect after 7 days by MTS method. The class given is functional, organism-based. The settings on record: Indian Ocean 889, Vero, 168 h. A general note: Damage to the host cells serves as the signal in cytopathic effect assays.

For orientation: EC50 means the concentration at which the effect is half-maximal.

`C/C1=C\[C@@H]2[C@H](CC[C@]3(C)O[C@H]3C3=C(C1=O)[C@@H](O)[C@H](C)C3=O)C2(C)C`: the selectivity ratio in series [1] is 1.92. For the same compound, the EC50 in the series on Chikungunya virus was determined as 14 µM.
